According to patent publication US20210032674A1, “METHOD FOR DETERMINING MICROORGANISM CONCENTRATION” (priority 2018, published 2021):
Values after ≈ are worked out from the molar mass of the structure shown.

Tested on: clinical isolate of Klebsiella pneumoniae
Test: Antibiotic susceptibility test (AST), MIC calling by automated microscopy imaging of microbial biomass in a 336-well AST-disc
Format: cell-based
Details: K. pneumoniae recovered from spiked positive blood culture flask, adjusted to 5x10^5 CFU/ml in CAMBH, 35° C., up to 5.5 hours total AST time; for MIC: Klebsiella pneumoniae, 5.5 h
Procedure: Clinical isolates grown on agar plate were individually suspended in PBS and adjusted to 0.5 McFarland. A 1:100 dilution of this was added together with 9 ml of blood from a healthy donor to a blood culture flask (BD Bactec Plus Aerob) and incubated in a blood culture cabinet overnight. In the morning, after the BCF had turned positive a 500 μl aliquot of the positive BCF were used for the subsequent analysis.
The value of the concentration determination was compared to a pre-determined standard curve and the concentration of microorganisms in the recovered suspension was automatically adjusted to the desired concentration (5×10^5 CFU/ml). For this experiment an aliquot of the concentration adjusted bacteria were plated on an agar plate to determine viable cell count to provide a control measure for the process.
The concentration adjusted sample in CAMBH was added using an automated pipette via central access ports to a 336-well AST-disc pre-filled with dried antibiotics in various concentrations.
Each well contain 20 μl of sample and is incubated at 35° C. An initial reading was taken after 30 minutes (reading 0). Subsequent readings (readings 1-6) were taken every hour up to 5.5 hours total AST time by imaging by automated microscopy.
MIC antibiotic concentrations (measured in mg/I) were determined for a range of antibiotics. Each antibiotic were present in triplicates in the AST-consumable in this experiment.

Row | Compound | MIC values (replicate #1) | MIC values (replicate #2) | MIC values (replicate #3) | MIC (replicate #1) | MIC (replicate #2) | MIC (replicate #3)
1 | Piperacillin/Tazobactam | 4 mg/I | 4 mg/I | 4 mg/I |  |  | 
2 | ceftazidime-avibactam | 16 mg/I | 32 mg/I | 32 mg/I |  |  | 
3 | CC(C)(O/N=C(\C(=O)N[C@@H]1C(=O)N2C(C(=O)[O-])=C(C[n+]3ccccc3)CS[C@H]12)c1csc(N)n1)C(=O)O [Ceftazidime] |  |  |  | ≤ 0.125 µg/mL | ≤ 0.125 µg/mL | ≤ 0.125 µg/mL
4 | Amoxicillin/clavulanic acid | 8 mg/I | 16 mg/I | 16 mg/I |  |  | 
5 | CO/N=C(\C(=O)N[C@@H]1C(=O)N2C(C(=O)O)=C(COC(C)=O)CS[C@H]12)c1csc(N)n1 [Cefotaxime] |  |  |  | > 8 µg/mL | > 8 µg/mL | > 8 µg/mL
6 | C[C@@H](O)[C@H]1C(=O)N2C(C(=O)O)=C(S[C@@H]3CN[C@H](C(=O)N(C)C)C3)[C@H](C)[C@H]12 [Meropenem] |  |  |  | ≤ 0.0625 µg/mL | ≤ 0.0625 µg/mL | ≤ 0.0625 µg/mL
7 | CO/N=C(\C(=O)N[C@@H]1C(=O)N2C(C(=O)O)=C(CSc3nc(=O)c(=O)[nH]n3C)CS[C@H]12)c1csc(N)n1 [Ceftriaxone] |  |  |  | > 8 µg/mL | > 8 µg/mL | > 8 µg/mL
8 | C[C@H]1COc2c(N3CCN(C)CC3)c(F)cc3c(=O)c(C(=O)O)cn1c23 [Levofloxacin] |  |  |  | 0.5 µg/mL (≈ 1.38 µM) | 0.5 µg/mL (≈ 1.38 µM) | 0.5 µg/mL (≈ 1.38 µM)
9 | C[C@@H](O)[C@H]1C(=O)N2C(C(=O)O)=C(SCCN=CN)C[C@H]12 [Imipinem] | <=0.5 mg/I | <=0.5 mg/I | <=0.5 mg/I |  |  | 
10 | CO[C@@]1(NC(=O)Cc2cccs2)C(=O)N2C(C(=O)O)=C(COC(N)=O)CS[C@@H]21 [Cefoxitine] |  |  |  | 2 µg/mL (≈ 4.68 µM) | 4 µg/mL (≈ 9.36 µM) | 2 µg/mL (≈ 4.68 µM)
11 | Colistin | 0.5 mg/I | 1 mg/I | 1 mg/I |  |  | 
12 | NCC[C@H](O)C(=O)N[C@@H]1C[C@H](N)[C@@H](O[C@H]2O[C@H](CN)[C@@H](O)[C@H](O)[C@H]2O)[C@H](O)[C@H]1O[C@H]1O[C@H](CO)[C@@H](O)[C@H](N)[C@H]1O [Amikacin] |  |  |  | 1 µg/mL (≈ 1.71 µM) | 2 µg/mL (≈ 3.42 µM) | 1 µg/mL (≈ 1.71 µM)
13 | NC[C@H]1O[C@H](O[C@H]2[C@H](O)[C@@H](O[C@H]3O[C@H](CO)[C@@H](O)[C@H](N)[C@H]3O)[C@H](N)C[C@@H]2N)[C@H](N)C[C@@H]1O [Tobramycin] |  |  |  | 2 µg/mL (≈ 4.28 µM) | 2 µg/mL (≈ 4.28 µM) | 2 µg/mL (≈ 4.28 µM)
14 | Trimethoprim/Sulfamethoxasole | >16 mg/I | >16 mg/I | >16 mg/I |  |  | 
15 | Gentamicin | 0.5 mg/I | 0.5 mg/I | 0.5 mg/I |  |  | 
16 | CN(C)c1cc(NC(=O)CNC(C)(C)C)c(O)c2c1C[C@H]1C[C@H]3[C@H](N(C)C)C(O)=C(C(N)=O)C(=O)[C@@]3(O)C(O)=C1C2=O [Tigecyclin] | 0.5 mg/I | 0.5 mg/I | 0.5 mg/I |  |  | 
17 | Ceftolozane-tazobactam | 0.25 mg/I | 0.25 mg/I | 0.25 mg/I |  |  | 
18 | C[C@@H](O)[C@H]1C(=O)N2C(C(=O)O)=C(S[C@@H]3CN[C@H](C(=O)Nc4cccc(C(=O)O)c4)C3)[C@H](C)[C@H]12 [Ertapenem] |  |  |  | ≤ 0.0156 µg/mL | 0.0312 µg/mL (≈ 0.0657 µM) | ≤ 0.0156 µg/mL
